Data published in paper PMC10945501, “Development and In Vivo Evaluation of Small-Molecule Ligands for Positron Emission Tomography of Immune Checkpoint Modulation Targeting Programmed Cell Death 1 Ligand 1” (Journal of Medicinal Chemistry, 2024).
Read-outs that look alike come from different tables or passages of the source.

Experiments:
human PD-L1 = target: T1, human PD-L1 (Homo sapiens, UniProt Q9NZQ7); assay: HTRF PD-1/PD-L1 binding assay (cell-free); details: for fold reduction of affinity, pyrrole at R1 vs 1,4-benzodioxanyl analogue / fold decrease in affinity by methylation at R3*: IC50 ratio; for fold reduction of affinity, pyrrole at R1 vs 1,4-benzodioxanyl analogue: pairs 4c vs 4m, 4e vs 4n, 4f vs 4o, 5c vs 5f; for fold decrease in affinity by methylation at R3*: pairs 4c vs 5a, 4c vs 5b, 4e vs 5c, 4e vs 5d
T1 construct: purchased Cisbio Bioassays SAS, Codolet, France 64PD1PEG
T1 sequence (Q9NZQ7 19-238 limits assumed): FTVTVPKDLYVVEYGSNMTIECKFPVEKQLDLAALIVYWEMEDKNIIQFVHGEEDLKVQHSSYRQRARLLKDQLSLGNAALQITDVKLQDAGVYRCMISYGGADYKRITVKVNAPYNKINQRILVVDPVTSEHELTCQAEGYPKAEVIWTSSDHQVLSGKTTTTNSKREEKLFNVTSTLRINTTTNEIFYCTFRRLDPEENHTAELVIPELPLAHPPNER

[1] = Lipophilicity by HPLC method (μHPLC logD); details: for μHPLC logD: pH 7.4; for chromatographic logD: pH 7.4, μHPLC logD
[2] = cell-free competitive PD-1/PD-L1 HTRF, mean ± SD, read-out: IC50 (hPD-L1 binding affinity, HTRF)
[3] = no full dose–response curves observed, values are relative IC50, read-out: relative IC50 (hPD-L1 binding affinity, HTRF)

SMILES	IC50 (human PD-L1; [2]) [µM]	IC50 (human PD-L1; [3]) [µM]	μHPLC logD [1]	chromatographic logD [1]	fold reduction of affinity, pyrrole at R1 vs 1,4-benzodioxanyl analogue (human PD-L1) [fold]	fold decrease in affinity by methylation at R3* (human PD-L1) [fold]
Cc1c(COc2cc(O)c(C=O)cc2Cl)cccc1-c1ccccc1 [Compound 2b, 5-Chloro-2-hydroxy-4-((2-methyl-[1,1′-biphenyl]-3-yl)methoxy)benzaldehyde]	> 100					
Cc1c(COc2cc(O)c(C=O)cc2Cl)cccc1-c1ccc2c(c1)OCCO2 [Compound 2c, 5-Chloro-4-((3-(2,3-dihydrobenzo[b][1,4]dioxin-6-yl)-2-methylbenzyl)oxy)-2-hydroxybenzaldehyde]	> 100					
Cc1c(COc2cc(OCc3cccc(C#N)c3)c(C=O)cc2Cl)cccc1-c1ccccc1 [Compound 3a, 3-((4-Chloro-2-formyl-5-((2-methyl-[1,1′-biphenyl]-3-yl)methoxy)phenoxy)methyl)benzonitrile]		1.3				
Cc1c(COc2cc(OCc3ccnc(C#N)c3)c(C=O)cc2Cl)cccc1-c1ccc2c(c1)OCCO2 [Compound 3b, 4-((4-Chloro-5-((3-(2,3-dihydrobenzo[b][1,4]dioxin-6-yl)-2-methylbenzyl)oxy)-2-formylphenoxy)methyl)picolinonitrile]		0.207 ± 0.34				
Cc1c(COc2cc(OCc3cccc(C#N)c3)c(C=O)cc2Cl)cccc1-c1ccc2c(c1)OCCO2 [Compound 3c, 3-((4-Chloro-5-((3-(2,3-dihydrobenzo[b][1,4]dioxin-6-yl)-2-methylbenzyl)oxy)-2-formylphenoxy)methyl)benzonitrile]	> 5					
Cc1c(COc2cc(OCc3cocn3)c(C=O)cc2Cl)cccc1-c1ccc2c(c1)OCCO2 [Compound 3d, 5-Chloro-4-((3-(2,3-dihydrobenzo[b][1,4]dioxin-6-yl)-2-methylbenzyl)oxy)-2-(oxazol-4-ylmethoxy)benzaldehyde]	> 5					
Cc1c(COc2cc(OCc3ccnc(C#N)c3)c(C=O)cc2Cl)cccc1-n1cccc1 [Compound 3e, 4-((4-Chloro-2-formyl-5-((2-methyl-3-(1H-pyrrol-1-yl)benzyl)oxy)phenoxy)methyl)picolinonitrile]	> 5					
CC(=O)NCCNCc1cnc(OCc2cccc(-c3ccccc3)c2C)c(Cl)c1 [Compound 4a, N-(2-(((5-Chloro-6-((2-methyl-[1,1′-biphenyl]-3-yl)methoxy)pyridin-3-yl)methyl)amino)ethyl)acetamide]	> 50		2.3 ± 0.1	2.33 ± 0.14		
Cc1c(COc2cc(OCc3ccnc(C#N)c3)c(CNCCO)cc2Cl)cccc1-n1cccc1 [Compound 4n, 4-((4-Chloro-2-(((2-hydroxyethyl)amino)methyl)-5-((2-methyl-3-(1H-pyrrol-1-yl)benzyl)oxy)phenoxy)methyl)picolinonitrile]	0.05 ± 0.003		4.3 ± 0.2	4.34 ± 0.18	6.40	
CC(=O)N1CCN(Cc2cc(Cl)c(OCc3cccc(-c4ccc5c(c4)OCCO5)c3C)cc2OCc2cccc(C#N)c2)C1=O [Compound 5e, 3-((2-((3-Acetyl-2-oxoimidazolidin-1-yl)methyl)-4-chloro-5-((3-(2,3-dihydrobenzo[b][1,4]dioxin-6-yl)-2-methylbenzyl)oxy)phenoxy)methyl)benzonitrile]	0.589 ± 0.178		5.6 ± 0.4	5.61 ± 0.37		

Continued by falling IC50 (human PD-L1; [2]), values first:

IC50 (human PD-L1; [2]) [µM]	IC50 (human PD-L1; [3]) [µM]	μHPLC logD [1]	chromatographic logD [1]	fold reduction of affinity, pyrrole at R1 vs 1,4-benzodioxanyl analogue (human PD-L1) [fold]	fold decrease in affinity by methylation at R3* (human PD-L1) [fold]	SMILES
0.05 ± 0.007		4.2 ± 0.2	4.21 ± 0.16			CC(=O)NCCNCc1cc(Cl)c(OCc2cccc(-c3ccc4c(c3)OCCO4)c2C)cc1OCc1cocn1 [Compound 4k, N-(2-((5-Chloro-4-((3-(2,3-dihydrobenzo[b][1,4]dioxin-6-yl)-2-methylbenzyl)oxy)-2-(oxazol-4-ylmethoxy)benzyl)amino)ethyl)acetamide]
0.046 ± 0.005			3.42 ± 0.05			Cc1c(COc2cc(OCc3ccnc(C#N)c3)c(CNCCOCCOCCOCCOCCC(=O)O)cc2Cl)cccc1-c1ccc2c(c1)OCCO2 [Compound 4g, 1-(5-Chloro-2-((2-cyanopyridin-4-yl)methoxy)-4-((3-(2,3-dihydrobenzo [b][1,4]dioxin-6-yl)-2-methylbenzyl)oxy)phenyl)-5,8,11,14-tetraoxa-2-azaheptadecan-17-oic Acid]
0.03 ± 0.008		4.9 ± 0.3	4.88 ± 0.26		4.98	COC(=O)[C@@H](CO)NCc1cc(Cl)c(OCc2cccc(-c3ccc4c(c3)OCCO4)c2C)cc1OCc1ccnc(C#N)c1 [Compound 5b, Methyl (5-Chloro-2-((2-cyanopyridin-4-yl)methoxy)-4-((3-(2,3-dihydrobenzo[b][1,4]dioxin-6-yl)-2-methylbenzyl)oxy)benzyl)-D-serinate]
0.029 ± 0.003			3.14 ± 0.01	5.99		Cc1c(COc2cc(OCc3ccnc(C#N)c3)c(CN3CCCC[C@H]3C(=O)O)cc2Cl)cccc1-n1cccc1 [Compound 4o, (S)-1-(5-Chloro-2-((2-cyanopyridin-4-yl)methoxy)-4-((2-methyl-3-(1H-pyrrol-1-yl)benzyl)oxy)benzyl)piperidine-2-carboxylic Acid]
0.019 ± 0.004		5.1 ± 0.3	5.09 ± 0.29		2.42	COCCNCc1cc(Cl)c(OCc2cccc(-c3ccc4c(c3)OCCO4)c2C)cc1OCc1ccnc(C#N)c1 [Compound 5d, 4-((4-Chloro-5-((3-(2,3-dihydrobenzo[b][1,4]dioxin-6-yl)-2-methylbenzyl)oxy)-2-(((2-methoxyethyl)amino)methyl)phenoxy)methyl)picolinonitrile]
0.016 ± 0.003			3.39 ± 0.04			Cc1c(COc2cc(OCc3cocn3)c(CN3CCCC[C@H]3C(=O)O)cc2Cl)cccc1-c1ccc2c(c1)OCCO2 [Compound 4l, (S)-1-(5-Chloro-4-((3-(2,3-dihydrobenzo[b][1,4]dioxin-6-yl)-2-methylbenzyl)oxy)-2-(oxazol-4-ylmethoxy)benzyl)piperidine-2-carboxylic Acid]
0.011 ± 0.001		4.7 ± 0.2	4.73 ± 0.24			CC(=O)NCCNCc1cc(Cl)c(OCc2cccc(-c3ccc4c(c3)OCCO4)c2C)cc1OCc1cccc(C#N)c1 [Compound 4j, N-(2-((5-Chloro-2-((3-cyanobenzyl)oxy)-4-((3-(2,3-dihydrobenzo[b][1,4]dioxin-6-yl)-2-methylbenzyl)oxy)benzyl)amino)ethyl)acetamide]
0.0092 ± 0.0006		4.5 ± 0.2	4.45 ± 0.2			CC(=O)NCCNCc1cc(Cl)c(OCc2cccc(-c3ccc4c(c3)OCCO4)c2C)cc1OCc1ccnc(C#N)c1 [Compound 4d, N-(2-((5-Chloro-2-((2-cyanopyridin-4-yl)methoxy)-4-((3-(2,3-dihydrobenzo [b][1,4]dioxin-6-yl)-2-methylbenzyl)oxy)benzyl)amino)ethyl)acetamide]
0.0082 ± 0.0018			3.42 ± 0.05			C#CCC[C@H](NCc1cc(Cl)c(OCc2cccc(-c3ccc4c(c3)OCCO4)c2C)cc1OCc1ccnc(C#N)c1)C(=O)O [Compound 4h, (S)-2-((5-Chloro-2-((2-cyanopyridin-4-yl)methoxy)-4-((3-(2,3-dihydrobenzo [b][1,4]dioxin-6-yl)-2-methylbenzyl)oxy)benzyl)amino)hex-5-ynoic Acid]
0.0077 ± 0.0006		4.7 ± 0.2	4.71 ± 0.24			Cc1c(COc2cc(OCc3ccnc(C#N)c3)c(CNCCO)cc2Cl)cccc1-c1ccc2c(c1)OCCO2 [Compound 4e, 4-((4-Chloro-5-((3-(2,3-dihydrobenzo[b][1,4]dioxin-6-yl)-2-methylbenzyl)oxy)-2-(((2-hydroxyethyl)amino)methyl)phenoxy)methyl)picolinonitrile]
0.0067 ± 0.0004			3.46 ± 0.05			Cc1c(COc2cc(OCc3cccc(C#N)c3)c(CN[C@H](CO)C(=O)O)cc2Cl)cccc1-c1ccccc1 [Compound 4b, (5-Chloro-2-((3-cyanobenzyl)oxy)-4-((2-methyl-[1,1′-biphenyl]-3-yl)methoxy)benzyl)-D-serine]
0.0061 ± 0.0003			3.25 ± 0.03			Cc1c(COc2cc(OCc3ccnc(C#N)c3)c(CN[C@H](CO)C(=O)O)cc2Cl)cccc1-c1ccc2c(c1)OCCO2 [Compound 4c, (5-Chloro-2-((2-cyanopyridin-4-yl)methoxy)-4-((3-(2,3-dihydrobenzo[b][1,4]dioxin-6-yl)-2-methylbenzyl)oxy)benzyl)-D-serine]
0.006 ± 0.001			2.83 ± 0.04	1.03		Cc1c(COc2cc(OCc3ccnc(C#N)c3)c(CN[C@H](CO)C(=O)O)cc2Cl)cccc1-n1cccc1 [Compound 4m, (5-Chloro-2-((2-cyanopyridin-4-yl)methoxy)-4-((2-methyl-3-(1H-pyrrol-1-yl)benzyl)oxy)benzyl)-D-serine]
0.0049 ± 0.0003			3.64 ± 0.09			Cc1c(COc2cc(OCc3ccnc(C#N)c3)c(CN3CCCC[C@H]3C(=O)O)cc2Cl)cccc1-c1ccc2c(c1)OCCO2 [Compound 4f, (S)-1-(5-Chloro-2-((2-cyanopyridin-4-yl)methoxy)-4-((3-(2,3-dihydrobenzo [b][1,4]dioxin-6-yl)-2-methylbenzyl)oxy)benzyl)piperidine-2-carboxylic Acid]
0.0037 ± 0.0005			3.47 ± 0.06			C#CCOC(=O)NCCCC[C@H](NCc1cc(Cl)c(OCc2cccc(-c3ccc4c(c3)OCCO4)c2C)cc1OCc1ccnc(C#N)c1)C(=O)O [Compound 4i, N^2-(5-Chloro-2-((2-cyanopyridin-4-yl)methoxy)-4-((3-(2,3-dihydrobenzo[b][1,4]dioxin-6-yl)-2-methylbenzyl)oxy)benzyl)-N^6-((prop-2-yn-1-yloxy)carbonyl)-L-lysine]
